According to patent US20210244713A1, “ANHYDROUS COMPOSITIONS OF mTOR INHIBITORS AND METHODS OF USE” (PALVELLA THERAPEUTICS, INC., priority 2018, published 2021):

Experiments:
[1] = Ex vivo skin permeation experiment; type: in vitro ADME, Human
Method: Human donor skin was placed between upper and lower compartments. The lower compartment was filled with receiver fluid. Various rapamycin compositions were applied on the surface of the skin facing the upper compartment (11 formulations (i.e., O3, NA21, NA22, NA21, NA17, TD201, NA19, NA25, AG14, NA26 and NA24), n=6 replicates, dosage 10 mg/cm^2) and left for 24 hrs. A positive displacement pipette was used to apply the formulation (˜10 mg/cm^2) to the plunger of a 1 mL syringe. The formulation (10+/−0.5 mg) was applied to the skin surface and spread over the diffusion area using the plunger. Prior to and after the application the weight of the plunger was recorded, from which the dose per cell was calculated.
Following the time period, the excess rapamycin compositions were wiped from the skin surface and the skin layers were separated into stratum corneum, epidermis, and dermis. The Stratum corneum was removed from the human skin using a tape stripping procedure. The epidermis was separated from the dermis by dry heating at 60° C. for 2 min. Rapamycin was extracted from each layer by 90:10 v/v ethanol:water solvent mixture, and quantified. The receiver fluid in the lower compartment was also analyzed for the presence of rapamycin.

[2] = Solubility of rapamycin in solvents and solvent combination

amount of rapamycin found on the surface of the skin ([1]; after 24 hours, relative to skin layers): greatest amount | amount of rapamycin quantified in both the epidermis and dermis over time ([1]; ex vivo human skin): increase | rapamycin detected in the receiver fluid ([1]; ex vivo human skin, any of the time points across the experimental period): not detected | Solubility capacity of each excipient based on concentration in formulation ([2]; IPA at 15.00 wt %): 0.56 wt % | Solubility capacity of each excipient based on concentration in formulation ([2]; IPA at 15.00 wt %, listed as rapamycin): −0.56 wt % | Solubility capacity of each excipient based on concentration in formulation ([2]; PEG 400 at 60.00 wt %): 1.03 wt % | Solubility capacity of each excipient based on concentration in formulation ([2]; diisopropyl adipate (DIA) at 15.00 wt %): 0.26 wt % | Solubility capacity of each excipient based on concentration in formulation ([2]; glycerol at 10.00 wt %): 0.08 wt % | Solubility capacity of the solvent system (expected maximum, simple linear additive effect) ([2]; sum of the excipient capacities): 1.93 wt %
SMILES: CO[C@H]1C[C@@H]2CC[C@@H](C)[C@@](O)(O2)C(=O)C(=O)N2CCCC[C@H]2C(=O)O[C@H]([C@H](C)C[C@@H]2CC[C@@H](O)[C@H](OC)C2)CC(=O)[C@H](C)/C=C(\C)[C@@H](O)[C@@H](OC)C(=O)[C@H](C)C[C@H](C)/C=C/C=C/C=C/1C [Rapamycin, rapamycin (sirolimus)]
drug residing in the epidermis versus stratum corneum or dermal layer ([1]; ex vivo human skin): more of the drug residing in the epidermis
